Reference: patent publication US8440710B2, “HSL inhibitors useful in the treatment of diabetes” (Hoffmann-La Roche Inc., priority 2009, dated 2013)

Biological target: T1, human HSL (Homo sapiens, UniProt Q05469)
T1 construct: generate a full length human HSL ORF with a 3′-His6 tag; made in house; host or cells: High 5 insect cells (baculovirus, pFast-BAC)
T1 sequence (Q05469 1-1076): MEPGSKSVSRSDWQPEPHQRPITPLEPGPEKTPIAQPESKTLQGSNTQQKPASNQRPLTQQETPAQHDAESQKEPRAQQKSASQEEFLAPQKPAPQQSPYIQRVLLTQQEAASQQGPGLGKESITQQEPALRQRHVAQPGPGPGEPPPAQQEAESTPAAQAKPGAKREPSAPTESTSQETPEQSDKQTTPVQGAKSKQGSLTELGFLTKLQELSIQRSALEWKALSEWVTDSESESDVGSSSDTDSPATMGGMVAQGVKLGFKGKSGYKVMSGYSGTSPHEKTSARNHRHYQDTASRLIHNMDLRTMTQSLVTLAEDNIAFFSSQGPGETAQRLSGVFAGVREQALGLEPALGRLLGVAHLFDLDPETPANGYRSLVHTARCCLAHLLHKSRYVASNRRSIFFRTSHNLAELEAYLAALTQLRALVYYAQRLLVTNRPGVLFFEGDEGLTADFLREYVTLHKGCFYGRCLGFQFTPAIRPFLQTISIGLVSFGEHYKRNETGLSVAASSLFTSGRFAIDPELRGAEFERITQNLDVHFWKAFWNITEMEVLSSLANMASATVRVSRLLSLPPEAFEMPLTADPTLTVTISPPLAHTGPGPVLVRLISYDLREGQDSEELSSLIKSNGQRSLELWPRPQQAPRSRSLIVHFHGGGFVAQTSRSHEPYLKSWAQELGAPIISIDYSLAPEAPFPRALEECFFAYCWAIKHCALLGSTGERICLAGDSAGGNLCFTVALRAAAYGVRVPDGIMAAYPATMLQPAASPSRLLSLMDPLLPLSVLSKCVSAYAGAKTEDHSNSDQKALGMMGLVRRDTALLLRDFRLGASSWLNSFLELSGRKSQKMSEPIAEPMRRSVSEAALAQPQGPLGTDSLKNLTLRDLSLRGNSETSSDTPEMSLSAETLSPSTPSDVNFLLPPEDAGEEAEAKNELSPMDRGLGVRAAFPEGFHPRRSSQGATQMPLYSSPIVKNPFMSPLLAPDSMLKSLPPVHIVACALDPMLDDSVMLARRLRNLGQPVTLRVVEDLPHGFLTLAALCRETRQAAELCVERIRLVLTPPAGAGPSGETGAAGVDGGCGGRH
Test: Human Hormone-Sensitive Lipase (HSL) enzyme inhibition assay (colorimetric, DMPT substrate)
Format: biochemical
Conditions: human full length HSL-His6, 2,3-dimercapto-1-propanol tributyrate substrate, 37° C. 20 minutes, absorbance at 405 nm; read-out: HSL hum IC50
Method in brief: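 Full-length human HSL with C-terminal His6, expressed in baculovirus-infected High 5 cells and Ni-NTA purified, was added (15 ug/ml stock) to 1.5 mM DMPT in 100 mM MOPS pH 7.2, 0.2 mg/ml fatty acid-free BSA containing compound. After 20 min at 37 °C, DTNB with SDS/Triton X-100 was added; A405 read after 15 min at RT.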

| SMILES | IC50 |
| --- | --- |
| CCC[C@]1(O)CC[C@]2(CCN(c3ccc(OCCCOC)cc3)C2=O)CC1 [Example 94, (5α,8α)-8-Hydroxy-2-[4-(3-methoxy-propoxy)-phenyl]-8-propyl-2-aza-spiro[4.5]decan-1-one] | 80 nM |
| CCC[C@]1(O)CC[C@]2(CCN(c3ccc(OCCOC)cc3)C2=O)CC1 [Example 95, (5α,8α)-8-Hydroxy-2-[4-(2-methoxy-ethoxy)-phenyl]-8-propyl-2-aza-spiro[4.5]decan-1-one] | 240 nM |
| CCCC[C@]1(O)CC[C@]2(CCN(c3ccc(OCCOC)cc3)C2=O)CC1 [Example 96, (5α,8α)-8-Butyl-8-hydroxy-2-[4-(2-methoxy-ethoxy)-phenyl]-2-aza-spiro[4.5]decan-1-one] | 60 nM |
| CCCC[C@]1(O)CC[C@@]2(CCN(c3ccc(OCCOC)cc3)C2=O)CC1 [Example 97, (5α,8β)-8-Butyl-8-hydroxy-2-[4-(2-methoxy-ethoxy)-phenyl]-2-aza-spiro[4.5]decan-1-one] | 1820 nM |
| O=C1N(c2ccc(OCCC(F)(F)F)cc2)CC[C@]12CC[C@@H](O)CC2 [Example 98, (5α,8β)-8-Hydroxy-2-[4-(3,3,3-trifluoro-propoxy)-phenyl]-2-aza-spiro[4.5]decan-1-one] | 2500 nM |
| CCC[C@]1(O)CC[C@@]2(CCN(c3ccc(OCCC(F)(F)F)cc3)C2=O)CC1 [Example 100, (5α,8β)-8-Hydroxy-8-propyl-2-[4-(3,3,3-trifluoro-propoxy)-phenyl]-2-aza-spiro[4.5]decan-1-one] | 360 nM |
| CCC[C@]1(O)CC[C@]2(CCN(c3ccc(C(C)C)nc3)C2=O)CC1 [Example 101, (5α,8α)-8-Hydroxy-2-(6-isopropylpyridin-3-yl)-8-propyl-2-aza-spiro[4.5]decan-1-one] | 110 nM |
| CC(C)c1ccc(N2CC[C@]3(CC[C@@](O)(C(C)C)CC3)C2=O)cn1 [Example 102, (5α,8α)-8-Hydroxy-8-isopropyl-2-(6-isopropylpyridin-3-yl)-2-aza-spiro[4.5]decan-1-one] | 100 nM |
| C=C(C)[C@]1(O)CC[C@@]2(CCN(c3ccc(OCC(F)(F)F)cc3)C2=O)CC1 [Example 106, (5α,8β)-8-Hydroxy-8-(prop-1-en-2-yl)-2-(4-(2,2,2-trifluoroethoxy)phenyl)-2-aza-spiro[4.5]decan-1-one] | 1350 nM |

These reach a lower IC50. Values come first.

| IC50 | SMILES |
| --- | --- |
| 30 nM | COCC#C[C@]1(O)CC[C@]2(CCN(c3ccc(CC(F)(F)F)cc3)C2=O)CC1 [Example 92, (5α,8α)-8-Hydroxy-8-(3-methoxy-prop-1-ynyl)-2-[4-(2,2,2-trifluoro-ethyl)-phenyl]-2-aza-spiro[4.5]decan-1-one] |
| 20 nM | COCCC[C@]1(O)CC[C@]2(CCN(c3ccc(CC(F)(F)F)cc3)C2=O)CC1 [Example 93, (5α,8α)-8-Hydroxy-8-(3-methoxy-propyl)-2-[4-(2,2,2-trifluoro-ethyl)-phenyl]-2-aza-spiro[4.5]decan-1-one] |
| 30 nM | CCC[C@]1(O)CC[C@]2(CCN(c3ccc(OCCC(F)(F)F)cc3)C2=O)CC1 [Example 99, (5α,8α)-8-Hydroxy-8-propyl-2-[4-(3,3,3-trifluoro-propoxy)-phenyl]-2-aza-spiro[4.5]decan-1-one] |
| 20 nM | CC(C)[C@]1(O)CC[C@]2(CCN(c3ccc(OCC(F)(F)F)cc3)C2=O)CC1 [Example 103, (5α,8α)-8-Hydroxy-8-isopropyl-2-[4-(2,2,2-trifluoro-ethoxy)-phenyl]-2-aza-spiro[4.5]decan-1-one] |
| 20 nM | CCC[C@]1(O)CC[C@]2(CCN(c3ccc(OCC(F)(F)F)cc3)C2=O)CC1 [Example 104, 8-Hydroxy-8-propyl-2-[4-(2,2,2-trifluoro-ethoxy)-phenyl]-2-aza-spiro[4.5]decan-1-one] |
| 30 nM | C=C(C)[C@]1(O)CC[C@]2(CCN(c3ccc(OCC(F)(F)F)cc3)C2=O)CC1 [Example 105, (5α,8α)-8-Hydroxy-8-(prop-1-en-2-yl)-2-(4-(2,2,2-trifluoroethoxy)phenyl)-2-aza-spiro[4.5]decan-1-one] |
